Test results from patent US20100285963A1, “SUBSTITUTED FLUOROALKOXYPHENYLSULFONYLUREAS” (priority 2001, published 2010).

How the values were obtained:
Assay type in all cases: in vivo
weeds [1] = experiment: Pre-emergence test (greenhouse), damage to weeds; conditions: for activity against weeds: soil sprayed 24 hours after sowing, rated after three weeks as % damage vs untreated control
Experimental: (§1) Solvent: 5 parts by weight of acetone
(§2) Emulsifier: 1 part by weight of alkylaryl polyglycol ether
(§3) To produce a suitable preparation of active compound, 1 part by weight of active compound is mixed with the stated amount of solvent, the stated amount of emulsifier is added and the concentrate is diluted with water to the desired concentration.
(§4) Seeds of the test plants are sown in normal soil. After 24 hours, the soil is sprayed with the preparation of active compounds such that the particular amount of active compound desired is applied per unit area. The concentration of active compound in the spray liquor is chosen such that the particular amount of active compound desired is applied in 1000 liters of water per hectare.
(§5) After three weeks, the degree of damage to the plants is rated in % damage in comparison to the development of the untreated control. The figures denote: • 0%=no effect (like untreated control) • 100%=total destruction

weeds [2] = experiment: Post-emergence test (greenhouse), damage to weeds; conditions: for activity against weeds: test plants of 5-15 cm sprayed, rated after three weeks as % damage vs untreated control
Experimental: as §1, §2
(§6) To product a suitable preparation of active compound, 1 part by weight of active compound is mixed with the stated amount of solvent, the stated amount of emulsifier is added and the concentrate is diluted with water to the desired concentration.
(§7) Test plants of a height of 5-15 cm are sprayed with the preparation of active compound such that the particular amounts of active compound desired are applied per unit area. The concentration of the spray liquor is chosen such that the particular amounts of active compound desired are applied in 10001 of water/ha.
(§8) After three weeks, the degree of damage to the plants is rated in % damage in comparison to the development of the untreated control.
(§9) The figures denote: • 0%=no effect (like untreated control) • 100%=total destruction

[3] = test system: crop plants, such as, for example, corn, wheat and sugar beet; experiment: Post-emergence test (greenhouse), tolerance by crop plants; conditions: after three weeks
Experimental: as §1, §2, §6, §7, §8, §9

[4] = test system: apple mildew pathogen Podosphaera leucotricha; experiment: Podosphaera test (apple)/protective; conditions: protective; for efficacy against mildew of apples (Podosphaera leucotricha): application rate of 100 g/ha, evaluation 10 days after the inoculation; for % efficacy: apple, application rate 100 g/ha, 10 days after inoculation
Experimental: Solvent: 49 parts by weight of acetone
as §2
To produce a suitable preparation of active compound, 1 part by weight of active compound is mixed with the stated amounts of solvent and emulsifier, and the concentrate is diluted with water to the desired concentration.
To test for protective activity, young plants are sprayed with the preparation of active compound at the stated application rate. After the spray coating has dried on, the plants are inoculated with an aqueous spore suspension of the apple mildew pathogen Podosphaera leucotricha. The plants are then placed in a greenhouse at about 23° C. and a relative atmospheric humidity of about 70%.
Evaluation is carried out 10 days after the inoculation. 0% means an efficacy which corresponds to that of the control, whereas an efficacy of 100% means that no infection is observed.

[5] = test system: crop plants, such as, for example, wheat and soya; experiment: Pre-emergence test (greenhouse), tolerance by crop plants; conditions: 15 g of a.i./ha, after three weeks
Experimental: as §1, §2, §3, §4, §5

[6] = 60 g of a.i./ha, after three weeks, Table A6
[7] = 30 g of a.i./ha, after three weeks, Table B5
[8] = 8 g of a.i./ha, after three weeks, Table B3
[9] = 250 g of a.i./ha, after three weeks
[10] = 8 g of a.i./ha, after three weeks
[11] = 30 g of a.i./ha, after three weeks, Table B8
[12] = 15 g of a.i./ha, after three weeks, Table A3
[13] = 30 g of a.i./ha, after three weeks, Table B10
[14] = 15 g of a.i./ha, after three weeks, Table A2
[15] = 30 g of a.i./ha, after three weeks, Table B7
[16] = 15 g of a.i./ha, after three weeks
[17] = 60 g of a.i./ha, after three weeks, Table A7
[18] = 30 g of a.i./ha, after three weeks, Table B12
[19] = 30 g of a.i./ha, after three weeks, Table B9

## COc1cc(Cl)nc(NC(=O)NS(=O)(=O)c2c(C)cccc2OCCCF)n1 [(14)]
Weeds [1]; [6]
  % damage Abutilon: 95%
  % damage Alopecurus: 100%
  % damage Amaranthus: 95%
  % damage Echinochloa: 100%
  % damage Galium: 90%
  % damage Sinapis: 95%
Weeds [2]; [7]
  % damage Amaranthus: 100%
  % damage Ipomoea: 95%
  % damage Matricaria: 90%
[3]; 30 g of a.i./ha, Table B5
  % damage Sugar beet: 0%
  % damage Wheat: 0%

## CCc1cccc(OCCCF)c1S(=O)(=O)NC(=O)Nc1nc(C)nc(OC)n1 [(17)]
Weeds [1]; [6]
  % damage Abutilon: 95%
  % damage Alopecurus: 95%
  % damage Amaranthus: 95%
  % damage Echinochloa: 95%
  % damage Galium: 95%
  % damage Sinapis: 90%
Weeds [2]; [8]
  % damage Abutilon: 100%
  % damage Ipomoea: 100%
  % damage Lolium: 90%
  % damage Matricaria: 100%
  % damage Solanum: 100%
  % damage Stellaria: 100%
[3]; 8 g of a.i./ha, Table B3
  % damage Wheat: 10%

## CCCc1cccc(OCCF)c1S(=O)(=O)NC(=O)Nc1nc(OC)cc(OC)n1 [Example 26]
Weeds [1]
  activity against weeds: very strong activity
Weeds [2]
  activity against weeds: very strong activity
[4]
  efficacy against mildew of apples (Podosphaera leucotricha): 100%

## CCCc1cccc(OCCF)c1S(=O)(=O)NC(=O)Nc1nc(OC)cc(OC)n1 [drawing 20]
[4]
  % efficacy: 100%

## COc1nc(C)nc(NC(=O)NS(=O)(=O)c2c(C)cccc2OCCF)n1 [(1)]
Weeds [1]; [9]
  % damage Alopecurus: 100%
  % damage Amaranthus: 100%
  % damage Avena fatua: 100%
  % damage Galium: 100%
  % damage Setaria: 100%
  % damage Xanthium: 100%
Weeds [2]; [9]
  % damage Abutilon: 100%
  % damage Alopecurus: 95%
  % damage Amaranthus: 100%
  % damage Avena fatua: 95%
  % damage Galium: 100%
  % damage Setaria: 100%
  % damage Sinapis: 100%

## COc1nc(C)nc(NC(=O)NS(=O)(=O)c2c(OCCF)cccc2C(F)(F)F)n1 [(3)]
Weeds [1]; [10]
  % damage Abutilon: 100%
  % damage Cyperus: 100%
  % damage Echinochloa: 100%
  % damage Galium: 100%
  % damage Solanum: 100%
  % damage Stellaria: 100%
  % damage Veronica: 100%
Weeds [2]; [11]
  % damage Abutilon: 100%
  % damage Alopecurus: 95%
  % damage Amaranthus: 100%
  % damage Lolium: 95%
  % damage Matricaria: 100%
  % damage Viola: 100%
  % damage Xanthium: 100%

## COc1nc(C)nc(NC(=O)[N-]S(=O)(=O)c2c(OCCF)cccc2C(F)(F)F)n1.[Na+] [(5)]
Weeds [1]; [12]
  % damage Amaranthus: 100%
  % damage Datura: 100%
  % damage Echinochloa: 100%
  % damage Galium: 100%
  % damage Matricaria: 100%
  % damage Viola: 100%
Weeds [2]; [13]
  % damage Abutilon: 100%
  % damage Alopecurus: 95%
  % damage Amaranthus: 100%
  % damage Ipomoea: 100%
  % damage Lolium: 95%
  % damage Matricaria: 100%
  % damage Stellaria: 100%

## COc1cc(OC)nc(NC(=O)NS(=O)(=O)c2c(C)cccc2OCCF)n1 [Example 24]
Weeds [1]
  activity against weeds: very strong activity
Weeds [2]
  activity against weeds: very strong activity
[4]
  efficacy against mildew of apples (Podosphaera leucotricha): 100%

## COc1nc(C)nc(NC(=O)NS(=O)(=O)c2c(C)cccc2OCCF)n1 [drawing 18]
[4]
  % efficacy: 100%

## COc1nc(C)nc(NC(=O)NS(=O)(=O)c2c(C)cccc2OCCF)n1 [(2)]
Weeds [1]; [9]
  % damage Alopecurus: 100%
  % damage Amaranthus: 100%
  % damage Avena fatua: 95%
  % damage Galium: 100%
  % damage Setaria: 100%
  % damage Xanthium: 95%
Weeds [2]; [9]
  % damage Abutilon: 100%
  % damage Alopecurus: 100%
  % damage Amaranthus: 100%
  % damage Avena fatua: 100%
  % damage Galium: 100%
  % damage Setaria: 100%
  % damage Sinapis: 100%

## COc1cc(OC)nc(NC(=O)NS(=O)(=O)c2c(C)cccc2OCCF)n1 [drawing 17]
[4]
  % efficacy: 100%

## COc1cc(OC)nc(NC(=O)NS(=O)(=O)c2c(OCCF)cccc2C(F)(F)F)n1 [(4)]
Weeds [1]; [14]
  % damage Alopecurus: 80%
  % damage Chenopodium: 100%
  % damage Matricaria: 100%
  % damage Sorghum: 80%
  % damage Viola: 100%
[5]
  % damage Soya: 0%
  % damage Wheat: 0%
Weeds [2]; [15]
  % damage Abutilon: 95%
  % damage Alopecurus: 90%
  % damage Amaranthus: 100%
  % damage Ipomoea: 95%
  % damage Matricaria: 100%
  % damage Viola: 95%

## CCCc1cccc(OCCCF)c1S(=O)(=O)NC(=O)Nc1nc(OC)nc(OC)n1 [Example 8]
Weeds [1]
  activity against weeds: very strong activity
Weeds [2]
  activity against weeds: very strong activity

## CCc1cccc(OCCCF)c1S(=O)(=O)NC(=O)Nc1nc(Cl)cc(OC)n1 [(18)]
Weeds [2]; [16]
  % damage Abutilon: 90%
  % damage Amaranthus: 95%
  % damage Matricaria: 95%
  % damage Xanthium: 90%
[3]; 15 g of a.i./ha
  % damage Wheat: 15%

## COc1nc(NC(=O)NS(=O)(=O)c2c(C)cccc2OCCCF)nc(OC)n1 [(15)]
Weeds [1]; [6]
  % damage Abutilon: 95%
  % damage Alopecurus: 95%
  % damage Amaranthus: 100%
  % damage Echinochloa: 95%
  % damage Galium: 95%
  % damage Sinapis: 95%
Weeds [2]; [13]
  % damage Abutilon: 95%
  % damage Alopecurus: 90%
  % damage Amaranthus: 100%
  % damage Ipomoea: 100%
  % damage Lolium: 90%
  % damage Matricaria: 100%
  % damage Stellaria: 100%

## COc1nc(C)nc(NC(=O)[N-]S(=O)(=O)c2c(OCCF)cccc2C(F)(F)F)n1.[Na+] [Example 5]
Weeds [1]
  activity against weeds: very strong activity
Weeds [2]
  activity against weeds: very strong activity

## CCc1cccc(OCCCF)c1S(=O)(=O)NC(=O)Nc1nc(C)cc(C)n1 [Example 6]
Weeds [1]
  activity against weeds: very strong activity
Weeds [2]
  activity against weeds: very strong activity

## CCCc1cccc(OCCCF)c1S(=O)(=O)NC(=O)Nc1nc(OC)cc(OC)n1 [Example 25]
Weeds [1]
  activity against weeds: very strong activity
Weeds [2]
  activity against weeds: very strong activity
[4]
  efficacy against mildew of apples (Podosphaera leucotricha): 100%

## COc1cc(Cl)nc(NC(=O)NS(=O)(=O)c2c(OCCF)cccc2C(F)(F)F)n1 [(20)]
Weeds [1]; [17]
  % damage Abutilon: 90%
  % damage Alopecurus: 90%
  % damage Amaranthus: 95%
  % damage Galium: 95%
  % damage Setaria: 100%
  % damage Sinapis: 95%
Weeds [2]; [18]
  % damage Echinochloa: 90%
  % damage Ipomoea: 100%
  % damage Matricaria: 95%
  % damage Polygonum: 95%
  % damage Xanthium: 100%

## CCc1cccc(OCCCF)c1S(=O)(=O)NC(=O)Nc1nc(C)nc(OC)n1 [Example 17]
Weeds [1]
  activity against weeds: very strong activity
Weeds [2]
  activity against weeds: very strong activity

## COc1nc(NC(=O)NS(=O)(=O)c2c(OCCF)cccc2C(F)(F)F)nc(OC)n1 [Example 21]
Weeds [1]
  activity against weeds: very strong activity
Weeds [2]
  activity against weeds: very strong activity

## CCc1cccc(OCCCF)c1S(=O)(=O)NC(=O)Nc1nc(C)cc(C)n1 [(6)]
Weeds [1]; [17]
  % damage Abutilon: 90%
  % damage Alopecurus: 80%
  % damage Amaranthus: 90%
  % damage Galium: 90%
  % damage Setaria: 95%
  % damage Sinapis: 90%
Weeds [2]; [19]
  % damage Abutilon: 90%
  % damage Alopecurus: 90%
  % damage Amaranthus: 90%
  % damage Ipomoea: 100%
  % damage Xanthium: 95%

## CCCc1cccc(OCCCF)c1S(=O)(=O)NC(=O)Nc1nc(OC)cc(OC)n1 [drawing 19]
[4]
  % efficacy: 100%
